Assay results as given in ChEMBL document CHEMBL4507291 (2021).

Columns and labels:
[1] = biological target: Mu-type opioid receptor (Homo sapiens) (UniProt P35372); settings: Compound concentration 10.0 uM
[2] = biological target: Leucine-rich repeat serine/threonine-protein kinase 2 (Homo sapiens, UniProt Q5S007); test: LRRK2 Biochemical Assay
[3] = biological target: T1, Alpha-2A adrenergic receptor (Homo sapiens) (UniProt P08913); test: Adrenergic alpha2A Eurofins-Panlabs radioligand binding assay; set-up: ligand concentration 1 nM, non-specific ligand with concentration 10 µM WB-4101, incubation time 60 min, incubation temperature 25 °C; settings: Compound concentration 10.0 uM
T1 sequence (whole entry): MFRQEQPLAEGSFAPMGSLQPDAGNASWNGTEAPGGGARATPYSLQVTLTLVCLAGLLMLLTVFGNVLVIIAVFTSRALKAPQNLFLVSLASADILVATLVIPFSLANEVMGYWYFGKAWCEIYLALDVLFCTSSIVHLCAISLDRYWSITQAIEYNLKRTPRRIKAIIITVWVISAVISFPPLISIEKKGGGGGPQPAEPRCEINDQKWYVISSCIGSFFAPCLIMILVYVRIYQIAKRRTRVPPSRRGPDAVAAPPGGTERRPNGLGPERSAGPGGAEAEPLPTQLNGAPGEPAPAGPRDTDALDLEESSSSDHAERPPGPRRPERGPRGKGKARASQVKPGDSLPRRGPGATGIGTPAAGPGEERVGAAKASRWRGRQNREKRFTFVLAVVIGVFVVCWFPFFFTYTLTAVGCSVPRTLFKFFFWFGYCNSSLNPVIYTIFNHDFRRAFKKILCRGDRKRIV

[4] = biological target: T2, Peroxisome proliferator-activated receptor gamma (Homo sapiens) (UniProt P37231); test: (§1) PPARgamma Eurofins-Panlabs radioligand binding assay; set-up: ligand concentration 5 nM, non-specific ligand with concentration 0.5 µM L-797773, incubation time 18 h, incubation temperature 15 °C
T2 sequence (whole entry): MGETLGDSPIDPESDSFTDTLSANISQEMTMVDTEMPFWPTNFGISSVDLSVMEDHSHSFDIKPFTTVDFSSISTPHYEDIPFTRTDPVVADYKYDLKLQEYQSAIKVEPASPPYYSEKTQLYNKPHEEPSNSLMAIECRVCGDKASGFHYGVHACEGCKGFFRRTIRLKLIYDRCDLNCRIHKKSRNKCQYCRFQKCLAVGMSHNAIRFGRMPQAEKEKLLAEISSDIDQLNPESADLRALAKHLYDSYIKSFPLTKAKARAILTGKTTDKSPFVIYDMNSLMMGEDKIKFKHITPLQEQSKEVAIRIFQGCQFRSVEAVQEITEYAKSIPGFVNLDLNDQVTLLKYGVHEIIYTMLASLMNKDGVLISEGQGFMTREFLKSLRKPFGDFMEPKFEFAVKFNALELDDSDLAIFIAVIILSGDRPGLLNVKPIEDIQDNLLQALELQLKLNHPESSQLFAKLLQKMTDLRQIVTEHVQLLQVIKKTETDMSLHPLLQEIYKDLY

[5] = biological target: Peroxisome proliferator-activated receptor gamma (Homo sapiens, UniProt P37231); test: as §1; set-up: ligand concentration 5 nM, non-specific ligand with concentration 0.5 µM L-797773, incubation time 18 h, incubation temperature 15 °C
[6] = biological target: T3, Serine/threonine-protein kinase D1 (Homo sapiens) (UniProt Q15139); test: PRKD1 (PKC mu) Kinase screen; settings: Compound concentration 1.0 uM
T3 sequence (whole entry): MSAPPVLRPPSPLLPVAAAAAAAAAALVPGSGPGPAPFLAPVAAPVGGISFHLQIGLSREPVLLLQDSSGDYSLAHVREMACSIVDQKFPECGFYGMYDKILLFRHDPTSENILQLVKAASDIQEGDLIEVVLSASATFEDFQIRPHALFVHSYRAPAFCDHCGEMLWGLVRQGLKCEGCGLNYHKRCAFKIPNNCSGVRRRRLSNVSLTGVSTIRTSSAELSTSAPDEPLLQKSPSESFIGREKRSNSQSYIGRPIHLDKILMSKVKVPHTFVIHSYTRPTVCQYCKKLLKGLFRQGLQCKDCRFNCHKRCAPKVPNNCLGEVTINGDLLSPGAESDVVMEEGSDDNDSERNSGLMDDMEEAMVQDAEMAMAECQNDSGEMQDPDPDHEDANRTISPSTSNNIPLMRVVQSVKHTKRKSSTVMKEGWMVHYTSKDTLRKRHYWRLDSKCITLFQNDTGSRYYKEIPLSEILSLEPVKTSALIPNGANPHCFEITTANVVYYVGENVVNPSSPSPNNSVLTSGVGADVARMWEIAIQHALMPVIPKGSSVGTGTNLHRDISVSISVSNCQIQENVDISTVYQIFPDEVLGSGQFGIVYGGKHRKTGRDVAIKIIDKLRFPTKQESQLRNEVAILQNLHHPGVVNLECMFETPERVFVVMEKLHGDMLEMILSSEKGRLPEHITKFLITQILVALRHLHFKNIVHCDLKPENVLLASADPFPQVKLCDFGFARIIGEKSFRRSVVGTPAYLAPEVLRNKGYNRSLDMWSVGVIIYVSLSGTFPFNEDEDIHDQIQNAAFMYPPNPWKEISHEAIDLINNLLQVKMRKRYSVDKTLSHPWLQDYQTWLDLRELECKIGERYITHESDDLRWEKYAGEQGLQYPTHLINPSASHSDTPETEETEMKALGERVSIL

[7] = biological target: T4, Tyrosine-protein kinase TXK (Homo sapiens) (UniProt P42681); test: TXK Kinase screen; settings: Compound concentration 1.0 uM
T4 sequence (whole entry): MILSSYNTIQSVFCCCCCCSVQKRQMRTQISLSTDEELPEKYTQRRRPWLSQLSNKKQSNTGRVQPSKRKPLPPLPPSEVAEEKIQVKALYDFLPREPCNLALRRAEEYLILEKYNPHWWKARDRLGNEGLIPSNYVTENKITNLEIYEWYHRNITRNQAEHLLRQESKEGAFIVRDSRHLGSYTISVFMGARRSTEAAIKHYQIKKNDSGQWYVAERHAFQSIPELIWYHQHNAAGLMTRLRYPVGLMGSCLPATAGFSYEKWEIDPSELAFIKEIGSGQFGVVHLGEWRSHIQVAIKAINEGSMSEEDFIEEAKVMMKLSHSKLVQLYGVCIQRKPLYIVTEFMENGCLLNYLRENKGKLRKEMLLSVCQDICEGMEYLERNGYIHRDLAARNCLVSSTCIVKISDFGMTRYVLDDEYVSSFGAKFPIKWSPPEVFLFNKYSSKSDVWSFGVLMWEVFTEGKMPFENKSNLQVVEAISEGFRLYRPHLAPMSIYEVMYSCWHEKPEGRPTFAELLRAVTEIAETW

Bos taurus = species on record: Bos taurus; test: Protein Serine/Threonine Kinase, PKA, Non-Selective Eurofins-Panlabs enzyme assay; assay type: protein-complex assay; set-up: substrate with concentration 370 µg/mL Histone Type III-S, incubation time 15 min, incubation temperature 25 °C; settings: Compound concentration 10.0 uM
[8] = biological target: PAS domain-containing serine/threonine-protein kinase (Homo sapiens) (UniProt Q96RG2); test: PASK Kinase screen; settings: Compound concentration 1.0 uM
[9] = biological target: Phosphatidylinositol 4-phosphate 3-kinase C2 domain-containing subunit beta (Homo sapiens) (UniProt O00750); test: PIK3C2B (PI3K-C2 beta) Kinase screen; settings: Compound concentration 1.0 uM
Rattus norvegicus = species on record: Rattus norvegicus; test: Glutamate, NMDA, Polyamine Eurofins-Panlabs radioligand binding assay; assay type: protein-complex assay; set-up: ligand concentration 2 nM; settings: Compound concentration 10.0 uM
[10] = biological target: Fibroblast growth factor receptor 4 (Homo sapiens) (UniProt P22455); test: FGFR4 Kinase screen; settings: Compound concentration 1.0 uM
[11] = biological target: Endothelin receptor type B (Homo sapiens) (UniProt P24530); settings: Compound concentration 10.0 uM
Endothelin receptor type B (Homo sapiens), sequence (P24530 whole entry): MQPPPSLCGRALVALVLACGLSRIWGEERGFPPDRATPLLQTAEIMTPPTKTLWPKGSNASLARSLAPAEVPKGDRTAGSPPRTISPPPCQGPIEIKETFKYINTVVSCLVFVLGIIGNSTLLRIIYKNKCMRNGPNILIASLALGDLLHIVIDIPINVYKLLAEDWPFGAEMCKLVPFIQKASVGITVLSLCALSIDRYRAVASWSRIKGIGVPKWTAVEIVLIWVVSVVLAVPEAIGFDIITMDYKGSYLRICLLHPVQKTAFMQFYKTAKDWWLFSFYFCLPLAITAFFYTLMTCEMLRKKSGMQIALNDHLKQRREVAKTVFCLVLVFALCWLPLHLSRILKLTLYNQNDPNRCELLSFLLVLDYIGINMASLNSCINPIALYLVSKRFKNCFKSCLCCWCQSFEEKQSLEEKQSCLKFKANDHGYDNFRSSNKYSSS

PAS domain-containing serine/threonine-protein kinase (Homo sapiens), sequence (Q96RG2 whole entry, the tested form may be a part): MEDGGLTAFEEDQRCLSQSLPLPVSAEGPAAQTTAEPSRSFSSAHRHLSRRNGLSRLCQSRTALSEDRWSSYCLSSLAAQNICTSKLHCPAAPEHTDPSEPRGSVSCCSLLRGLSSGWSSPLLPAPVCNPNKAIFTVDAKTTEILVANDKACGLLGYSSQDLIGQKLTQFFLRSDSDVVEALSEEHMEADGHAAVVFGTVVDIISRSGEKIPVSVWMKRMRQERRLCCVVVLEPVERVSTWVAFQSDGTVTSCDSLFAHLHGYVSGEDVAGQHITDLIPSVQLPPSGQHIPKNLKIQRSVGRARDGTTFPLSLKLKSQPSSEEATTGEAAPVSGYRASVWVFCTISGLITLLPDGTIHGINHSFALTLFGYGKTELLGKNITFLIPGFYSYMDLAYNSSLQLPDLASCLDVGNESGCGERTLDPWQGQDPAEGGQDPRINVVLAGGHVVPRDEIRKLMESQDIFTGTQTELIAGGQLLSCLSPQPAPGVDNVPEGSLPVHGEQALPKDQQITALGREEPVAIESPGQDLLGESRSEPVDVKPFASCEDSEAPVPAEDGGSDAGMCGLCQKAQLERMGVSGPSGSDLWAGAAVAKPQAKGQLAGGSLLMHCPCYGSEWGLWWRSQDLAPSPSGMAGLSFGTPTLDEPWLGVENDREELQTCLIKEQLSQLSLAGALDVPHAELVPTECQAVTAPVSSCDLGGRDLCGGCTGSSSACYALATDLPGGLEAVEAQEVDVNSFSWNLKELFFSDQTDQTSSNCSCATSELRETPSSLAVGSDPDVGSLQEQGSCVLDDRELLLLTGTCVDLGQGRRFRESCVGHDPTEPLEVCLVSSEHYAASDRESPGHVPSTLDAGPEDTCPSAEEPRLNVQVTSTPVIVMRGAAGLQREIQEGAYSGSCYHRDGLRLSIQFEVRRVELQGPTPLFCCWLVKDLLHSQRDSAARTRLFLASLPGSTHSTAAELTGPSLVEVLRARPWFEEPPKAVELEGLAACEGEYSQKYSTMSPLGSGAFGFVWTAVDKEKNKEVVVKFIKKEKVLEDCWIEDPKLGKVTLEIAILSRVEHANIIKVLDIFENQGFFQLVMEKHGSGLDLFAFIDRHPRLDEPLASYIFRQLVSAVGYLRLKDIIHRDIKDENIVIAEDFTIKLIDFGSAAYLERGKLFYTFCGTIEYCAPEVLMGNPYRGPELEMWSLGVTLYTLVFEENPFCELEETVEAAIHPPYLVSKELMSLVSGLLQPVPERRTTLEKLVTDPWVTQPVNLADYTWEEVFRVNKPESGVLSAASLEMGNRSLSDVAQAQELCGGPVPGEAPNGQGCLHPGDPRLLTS
Fibroblast growth factor receptor 4 (Homo sapiens), sequence (P22455 22-802 limits assumed): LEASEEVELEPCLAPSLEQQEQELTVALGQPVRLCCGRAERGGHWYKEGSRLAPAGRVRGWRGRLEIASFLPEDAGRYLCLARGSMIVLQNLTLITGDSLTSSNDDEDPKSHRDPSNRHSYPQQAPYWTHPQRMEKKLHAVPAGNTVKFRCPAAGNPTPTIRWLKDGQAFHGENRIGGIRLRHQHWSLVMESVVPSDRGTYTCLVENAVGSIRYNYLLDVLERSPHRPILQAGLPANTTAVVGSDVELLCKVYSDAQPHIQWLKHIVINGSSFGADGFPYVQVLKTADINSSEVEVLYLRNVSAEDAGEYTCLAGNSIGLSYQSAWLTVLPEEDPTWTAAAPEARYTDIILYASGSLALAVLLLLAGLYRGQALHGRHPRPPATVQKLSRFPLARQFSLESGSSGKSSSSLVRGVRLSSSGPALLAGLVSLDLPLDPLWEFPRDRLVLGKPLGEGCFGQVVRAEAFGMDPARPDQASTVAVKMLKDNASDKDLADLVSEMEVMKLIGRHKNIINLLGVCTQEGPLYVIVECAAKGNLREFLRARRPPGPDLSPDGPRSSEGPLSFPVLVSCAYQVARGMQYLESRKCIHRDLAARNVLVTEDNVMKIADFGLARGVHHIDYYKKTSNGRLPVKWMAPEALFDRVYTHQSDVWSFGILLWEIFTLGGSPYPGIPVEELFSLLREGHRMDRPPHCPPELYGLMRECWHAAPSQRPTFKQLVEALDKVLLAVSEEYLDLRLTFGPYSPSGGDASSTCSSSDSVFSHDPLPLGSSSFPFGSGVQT
Phosphatidylinositol 4-phosphate 3-kinase C2 domain-containing subunit beta (Homo sapiens), sequence (O00750 whole entry, the tested form may be a part): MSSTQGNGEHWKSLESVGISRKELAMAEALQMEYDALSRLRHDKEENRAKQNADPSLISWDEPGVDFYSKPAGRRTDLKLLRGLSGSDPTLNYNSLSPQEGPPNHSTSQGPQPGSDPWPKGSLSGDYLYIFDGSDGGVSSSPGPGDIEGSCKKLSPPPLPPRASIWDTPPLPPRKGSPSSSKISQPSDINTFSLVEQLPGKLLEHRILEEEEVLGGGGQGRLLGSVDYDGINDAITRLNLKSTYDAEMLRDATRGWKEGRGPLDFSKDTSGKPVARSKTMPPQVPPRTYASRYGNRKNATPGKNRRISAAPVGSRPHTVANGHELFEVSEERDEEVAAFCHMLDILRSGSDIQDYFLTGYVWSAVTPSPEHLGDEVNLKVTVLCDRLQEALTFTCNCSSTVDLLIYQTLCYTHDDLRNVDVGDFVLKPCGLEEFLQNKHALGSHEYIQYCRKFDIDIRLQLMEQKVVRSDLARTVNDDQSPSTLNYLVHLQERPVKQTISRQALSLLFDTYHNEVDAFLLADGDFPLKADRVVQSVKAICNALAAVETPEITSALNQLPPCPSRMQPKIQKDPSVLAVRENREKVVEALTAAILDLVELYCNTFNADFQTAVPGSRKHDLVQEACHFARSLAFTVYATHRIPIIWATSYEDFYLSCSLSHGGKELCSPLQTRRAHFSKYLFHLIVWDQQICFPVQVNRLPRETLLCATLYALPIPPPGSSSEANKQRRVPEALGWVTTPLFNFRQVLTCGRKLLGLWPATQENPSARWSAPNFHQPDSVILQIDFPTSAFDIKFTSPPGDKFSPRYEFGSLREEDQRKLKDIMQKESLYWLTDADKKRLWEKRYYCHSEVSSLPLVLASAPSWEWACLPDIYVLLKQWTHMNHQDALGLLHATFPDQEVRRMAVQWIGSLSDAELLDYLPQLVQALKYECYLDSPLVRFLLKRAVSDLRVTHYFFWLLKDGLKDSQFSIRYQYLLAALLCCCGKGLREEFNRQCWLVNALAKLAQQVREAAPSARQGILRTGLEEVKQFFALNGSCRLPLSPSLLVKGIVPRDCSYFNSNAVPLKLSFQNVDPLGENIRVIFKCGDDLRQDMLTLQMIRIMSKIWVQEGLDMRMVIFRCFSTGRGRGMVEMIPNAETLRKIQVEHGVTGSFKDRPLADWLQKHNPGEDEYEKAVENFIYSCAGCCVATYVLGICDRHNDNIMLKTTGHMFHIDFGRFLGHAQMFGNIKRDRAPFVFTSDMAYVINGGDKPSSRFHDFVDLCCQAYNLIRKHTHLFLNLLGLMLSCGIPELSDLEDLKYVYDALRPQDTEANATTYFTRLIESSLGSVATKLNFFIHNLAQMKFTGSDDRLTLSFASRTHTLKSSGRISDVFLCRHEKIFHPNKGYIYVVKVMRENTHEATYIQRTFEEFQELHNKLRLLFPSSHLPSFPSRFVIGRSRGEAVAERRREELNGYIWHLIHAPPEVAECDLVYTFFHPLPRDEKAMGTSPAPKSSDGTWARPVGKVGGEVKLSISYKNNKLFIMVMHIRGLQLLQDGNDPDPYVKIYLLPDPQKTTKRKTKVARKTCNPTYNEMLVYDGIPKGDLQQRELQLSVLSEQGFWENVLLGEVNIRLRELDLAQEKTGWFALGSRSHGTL
Mu-type opioid receptor (Homo sapiens), sequence (P35372 whole entry): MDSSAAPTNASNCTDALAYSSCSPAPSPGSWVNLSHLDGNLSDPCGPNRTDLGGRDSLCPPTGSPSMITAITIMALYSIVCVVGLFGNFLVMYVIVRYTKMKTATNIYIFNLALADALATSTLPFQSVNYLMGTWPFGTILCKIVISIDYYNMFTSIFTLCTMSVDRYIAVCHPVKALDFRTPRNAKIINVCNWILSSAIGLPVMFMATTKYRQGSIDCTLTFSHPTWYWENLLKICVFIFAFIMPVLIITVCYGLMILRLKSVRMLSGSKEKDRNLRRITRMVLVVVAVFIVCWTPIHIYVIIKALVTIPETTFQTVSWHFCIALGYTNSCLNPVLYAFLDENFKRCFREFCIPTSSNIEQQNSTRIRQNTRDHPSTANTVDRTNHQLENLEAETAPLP

Compound: C[C@@H]1CN(c2cc(-c3nn(C)c4ccc(OC5(C)CC5)cc34)ncn2)C[C@H](C)O1 [MLi-2-NC]
- inhibition [1]: 13.2%
- IC50 [2]: 6480 nM (not active)

Compound: C[C@@H]1CN(c2cc(-c3n[nH]c4ccc(OC5(C)CC5)cc34)ncn2)C[C@H](C)O1 [MLi-2]
- inhibition [3]: 6%
- inhibition ([4]; Compound concentration 0.01 uM): 6%
- inhibition ([4]; Compound concentration 0.1 uM): 0%
- inhibition ([4]; Compound concentration 1.0 uM): 10%
- inhibition ([4]; Compound concentration 10.0 uM): 62%
- Ki [5]: 1190 nM
- inhibition [6]: 13.2%
- inhibition [7]: 3.11%
- inhibition (Bos taurus): 16%
- inhibition [8]: -0.0985%
- inhibition [9]: -3.26%
- inhibition (Rattus norvegicus): 19%
- inhibition [10]: 14.8%
- inhibition [11]: -1%
